The source made the active and inactive calls. No cut-off for these calls is given here.
Legend:
SK-MEL-28 [1] = test: Induction of cell cycle arrest in human SK-MEL-28 cells assessed as accumulation of cells at G0-G1 phase at 2.5 uM measured after 48 hrs by PI staining based flow cytometry (reference value: 74.32%); format: functional
SK-MEL-28 [2] = test: Induction of cell cycle arrest in human SK-MEL-28 cells assessed as accumulation of cells at G0-G1 phase at 5 uM measured after 48 hrs by PI staining based flow cytometry (reference value: 74.32%); format: functional
SK-MEL-28 [3] = test: Induction of apoptosis in human SK-MEL-28 cells assessed as early apoptotic cells at 1 uM incubated for 24 hrs by Annexin V-FITC/PI dual staining based flow cytometry analysis (reference value: 0.0%); format: functional
SK-MEL-28 [4] = test: Anticancer activity against human SK-MEL-28 cells assessed as inhibition in cell growth measured after 72 hrs by MTT assay; format: functional, cell-based; conditions: SK-MEL-28, 72 h
SK-MEL-28 [5] = test: Induction of cell cycle arrest in human SK-MEL-28 cells assessed as accumulation of cells at G2 phase at 1 uM measured after 48 hrs by PI staining based flow cytometry (reference value: 9.17%); format: functional
SK-MEL-28 [6] = test: Inhibition of cell migration in human SK-MEL-28 cells at 1 to 5 uM incubated for 0 to 48 hrs by phase-contrast microscopy; format: functional, cell-based; conditions: dose 1-5 µM, time 0-48 hrs
SK-MEL-28 [7] = test: Induction of apoptosis in human SK-MEL-28 cells assessed as live cells at 5 uM incubated for 24 hrs by Annexin V-FITC/PI dual staining based flow cytometry analysis (reference value: 99.9%); format: functional
SK-MEL-28 [8] = test: Induction of apoptosis in human SK-MEL-28 cells assessed as late apoptotic cells at 2.5 uM incubated for 24 hrs by Annexin V-FITC/PI dual staining based flow cytometry analysis (reference value: 0.1%); format: functional
Tubulin = test: Inhibition of tubulin polymerization (unknown origin) incubated for 1 hr; format: protein-complex assay, Homo sapiens
SK-MEL-28 [9] = test: Induction of apoptosis in human SK-MEL-28 cells assessed as early apoptotic cells at 5 uM incubated for 24 hrs by Annexin V-FITC/PI dual staining based flow cytometry analysis (reference value: 0.0%); format: functional
SK-MEL-28 [10] = test: Induction of mitochondrial membrane potential depolarization in human SK-MEL-28 cells assessed as J-monomer level by measuring green fluorescence intensity at 1 uM incubated for 48 hrs by JC-1 staining based analysis (reference value: 0.8%); format: functional
SK-MEL-28 [11] = test: Induction of morphological changes in human SK-MEL-28 cells assessed as nuclear shrinkage at 1 to 5 uM measured after 48 hrs DAPI staining based analysis; format: functional, cell-based; conditions: dose 1-5 µM
Tubulin (Homo sapiens) = Tubulin (Homo sapiens) (UniProt P68371+Q9H4B7+P0DPH7+P68366+Q13509+Q71U36+P04350+Q3ZCM7+P07437+P68363+Q9BQE3+Q6PEY2+Q13885+Q9BVA1+Q9BUF5); test: Inhibition of tubulin polymerization (unknown origin) at 0.75 uM incubated for 1 hr relative to control; format: protein-complex assay
[12] = Selectivity index, ratio of IC50 for NRK-52E cells to ratio of IC50 for human A549 cells; format: toxicity; conditions: rat (NRK-52E), NRK-52E cells versus A549 cells, read-out: Selectivity Index
SK-MEL-28 [13] = test: Induction of morphological changes in human SK-MEL-28 cells assessed as production of apoptotic bodies by ethidium bromide/acridine orange staining based analysis; format: functional, cell-based; conditions: dose 1-5 µM
MCF7 = test: Anticancer activity against human MCF7 cells assessed as inhibition in cell growth measured after 72 hrs by MTT assay; format: functional, cell-based; conditions: MCF7, 72 h
SK-MEL-28 [14] = test: Induction of cell cycle arrest in human SK-MEL-28 cells assessed as accumulation of cells at G0-G1 phase at 1 uM measured after 48 hrs by PI staining based flow cytometry (reference value: 74.32%); format: functional
SK-MEL-28 [15] = test: Inhibition of colony formation in human SK-MEL-28 cells incubated for 48 hrs by crystal violet staining based colony formation assay; format: functional, cell-based; conditions: dose 1-5 µM
HCT-116 = test: Anticancer activity against human HCT-116 cells assessed as inhibition in cell growth measured after 72 hrs by MTT assay; format: functional, cell-based; conditions: HCT-116, 72 h
B16-F10 = test: Anticancer activity against mouse B16-F10 cells assessed as inhibition in cell growth measured after 72 hrs by MTT assay; format: functional, cell-based; conditions: B16-F10, 72 h
SK-MEL-28 [16] = test: Induction of apoptosis in human SK-MEL-28 cells assessed as live cells at 1 uM incubated for 24 hrs by Annexin V-FITC/PI dual staining based flow cytometry analysis (reference value: 99.9%); format: functional
[17] = Selectivity index, ratio of IC50 for NRK-52E cells to ratio of IC50 for mouse B16-F10 cells; format: toxicity; conditions: NRK-52E cells versus B16-F10 cells, read-out: Selectivity Index
SK-MEL-28 [18] = test: Induction of apoptosis in human SK-MEL-28 cells assessed as live cells at 2.5 uM incubated for 24 hrs by Annexin V-FITC/PI dual staining based flow cytometry analysis (reference value: 99.9%); format: functional
SK-MEL-28 [19] = test: Induction of morphological changes in human SK-MEL-28 cells assessed as appearance of nuclei at 1 to 5 uM measured after 48 hrs DAPI staining based analysis; format: functional, cell-based; conditions: dose 1-5 µM
SK-MEL-28 [20] = test: Induction of apoptosis in human SK-MEL-28 cells assessed as early apoptotic cells at 2.5 uM incubated for 24 hrs by Annexin V-FITC/PI dual staining based flow cytometry analysis (reference value: 0.0%); format: functional
SK-MEL-28 [21] = test: Induction of mitochondrial membrane potential depolarization in human SK-MEL-28 cells assessed as J-monomer level by measuring green fluorescence intensity at 5 uM incubated for 48 hrs by JC-1 staining based analysis (reference value: 0.8%); format: functional
SK-MEL-28 [22] = test: Induction of apoptosis in human SK-MEL-28 cells assessed as late apoptotic cells at 5 uM incubated for 24 hrs by Annexin V-FITC/PI dual staining based flow cytometry analysis (reference value: 0.1%); format: functional
[23] = Selectivity index, ratio of IC50 for NRK-52E cells to ratio of IC50 for human MCF7 cells; format: toxicity; conditions: rat (NRK-52E), NRK-52E cells versus MCF7 cells, read-out: Selectivity Index
SK-MEL-28 [24] = test: Induction of mitochondrial membrane potential changes in human SK-MEL-28 cells assessed as J-aggregate level by measuring red fluorescence intensity at 2.5 uM incubated for 48 hrs by JC-1 staining based analysis (reference value: 98.9%); format: functional
A549 = test: Anticancer activity against human A549 cells assessed as inhibition in cell growth measured after 72 hrs by MTT assay; format: functional, cell-based; conditions: A549, 72 h
SK-MEL-28 [25] = test: Induction of morphological changes in human SK-MEL-28 cells assessed as chromatin condensation by ethidium bromide/acridine orange staining based analysis; format: functional, cell-based; conditions: dose 1-5 µM
SK-MEL-28 [26] = test: Induction of apoptosis in human SK-MEL-28 cells assessed as necrotic cells at 2.5 uM incubated for 24 hrs by Annexin V-FITC/PI staining based flow cytometry analysis (reference value: 0.1%); format: functional
SK-MEL-28 [27] = test: Induction of cell cycle arrest in human SK-MEL-28 cells assessed as accumulation of cells at S phase at 2.5 uM measured after 48 hrs by PI staining based flow cytometry (reference value: 16.5%); format: functional
SK-MEL-28 [28] = test: Induction of apoptosis in human SK-MEL-28 cells assessed as necrotic cells at 1 uM incubated for 24 hrs by Annexin V-FITC/PI staining based flow cytometry analysis (reference value: 0.1%); format: functional

Structure (SMILES): COc1cc(-c2nc3cc(F)ccc3[nH]2)ccc1OCC(=O)N1CCc2ccccc21
- Activity (SK-MEL-28 [1]): 51.45%
- Activity (SK-MEL-28 [2]): 49.28%
- Activity (SK-MEL-28 [3]): 60.8%
- IC50 (SK-MEL-28 [4]): 2.69 µM
- Activity (SK-MEL-28 [5]): 15.96%
- inhibition (SK-MEL-28 [6]): Active
- Activity (SK-MEL-28 [7]): 50.7%
- Activity (SK-MEL-28 [8]): 20.2%
- IC50 (Tubulin): 5.65 µM
- Activity (SK-MEL-28 [9]): 1.3%
- Activity (SK-MEL-28 [10]): 2%
- Activity (SK-MEL-28 [11]): Active
- inhibition (Tubulin (Homo sapiens)): 20.4%
- selectivity ratio [12]: 14
- Activity (SK-MEL-28 [13]): Dose-Dependent Effect
- IC50 (MCF7): 17.9 µM
- Activity (SK-MEL-28 [14]): 61.71%
- inhibition (SK-MEL-28 [15]): Dose-Dependent Effect
- IC50 (HCT-116): 6.98 µM
- IC50 (B16-F10): 3.1 µM
- Activity (SK-MEL-28 [16]): 28.5%
- selectivity ratio [17]: 17.4
- Activity (SK-MEL-28 [18]): 52.5%
- Activity (SK-MEL-28 [19]): Active
- Activity (SK-MEL-28 [20]): 26.4%
- Activity (SK-MEL-28 [21]): 14.9%
- Activity (SK-MEL-28 [22]): 35.1%
- selectivity ratio [23]: 3
- Activity (SK-MEL-28 [24]): 96.7%
- IC50 (A549): 3.84 µM
- Activity (SK-MEL-28 [25]): Dose-Dependent Effect
- Activity (SK-MEL-28 [26]): 1%
- Activity (SK-MEL-28 [27]): 23.71%
- Activity (SK-MEL-28 [28]): 0%
